Results as given in PubChem BioAssay AID2060616 (Molecular Pharmacology Branch, DTP, NCI, 2025).

Test system: 377384-186-R-J1-PDC complex spheroid viability
Assay: Anticancer human tumor 377384-186-R-J1-PDC patient-derived pancreatic carcinoma cell line growth inhibition [CLK]
Details: for IC50: curve of first compound; for viability, T/C: stronger effect = lower value
Procedure, shortened: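 Patient-derived tumor cells grown as complex spheroids with HUVEC endothelial cells and mesenchymal stem cells, treated with drug combinations. Concentrations descend in half-log steps from near clinical Cmax, or from 10 microM if Cmax unknown.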

[1] = second compound 0.0316 µM, first compound 0.0316 µM
[2] = second compound 0.0316 µM, first compound 0.1 µM
[3] = second compound 0.0316 µM, first compound 0.316 µM
[4] = second compound 0.0316 µM, first compound 1 µM
[5] = second compound 0.1 µM, first compound 0.0316 µM
[6] = second compound 0.1 µM, first compound 0.1 µM
[7] = second compound 0.1 µM, first compound 0.316 µM
[8] = second compound 0.1 µM, first compound 1 µM
[9] = second compound 0.316 µM, first compound 0.0316 µM
[10] = second compound 0.316 µM, first compound 0.1 µM
[11] = second compound 0.316 µM, first compound 0.316 µM
[12] = second compound 0.316 µM, first compound 1 µM
[13] = second compound 1 µM, first compound 0.0316 µM
[14] = second compound 1 µM, first compound 0.1 µM
[15] = second compound 1 µM, first compound 0.316 µM
[16] = second compound 1 µM, first compound 1 µM
[17] = second compound 3.16 µM, first compound 0.0316 µM
[18] = second compound 3.16 µM, first compound 0.1 µM
[19] = second compound 3.16 µM, first compound 0.316 µM
[20] = second compound 3.16 µM, first compound 1 µM
[21] = second compound 10 µM, first compound 0.0316 µM
[22] = second compound 10 µM, first compound 0.1 µM
[23] = second compound 10 µM, first compound 0.316 µM
[24] = second compound 10 µM, first compound 1 µM
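Further: spheroids exposed to agents for 7 days before reading.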
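Wherever viability, T/C is given: luminescence signal used as a stand-in for viable cells.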

In the case of CCc1c2c(nc3ccc(O)cc13)-c1cc3c(c(=O)n1C2)COC(=O)[C@]3(O)CC + CN1CCN(c2cc(C(=O)Nc3cc4cc(-c5cnn(C)c5)ccc4cn3)ccn2)CC1, the IC50 (second compound 0.0316 µM) is reported as < 3.16 nM, the IC50 (second compound 0.1 µM) is reported as < 3.16 nM and the IC50 (second compound 0.316 µM) is reported as < 3.16 nM. For the same molecule, the IC50 (second compound 1 µM) was < 3.16 nM, the IC50 (second compound 3.16 µM) was < 3.16 nM and the IC50 (second compound 10 µM) was < 3.16 nM. For the same molecule, the viability, T/C (second compound 0.0316 µM, first compound 0.00316 µM) was 38.2%, the viability, T/C (second compound 0.0316 µM, first compound 0.01 µM) was 16.4% and the viability, T/C [1] was 9%. It also gave a viability, T/C [2] of 3.5%, a viability, T/C [3] of 2% and a viability, T/C [4] of 0.73%. It also gave a viability, T/C (second compound 0.1 µM, first compound 0.00316 µM) of 31.7%, a viability, T/C (second compound 0.1 µM, first compound 0.01 µM) of 18.6% and a viability, T/C [5] of 8.13%. It also gave a viability, T/C [6] of 3.62%, a viability, T/C [7] of 1.47% and a viability, T/C [8] of 0.71%. For the same molecule, the viability, T/C (second compound 0.316 µM, first compound 0.00316 µM) was 18.3%, the viability, T/C (second compound 0.316 µM, first compound 0.01 µM) was 15% and the viability, T/C [9] was 7.22%. For the same molecule, the viability, T/C [10] was 4.37%, the viability, T/C [11] was 1.79% and the viability, T/C [12] was 0.66%. The viability, T/C (second compound 1 µM, first compound 0.00316 µM) was 0.56%, the viability, T/C (second compound 1 µM, first compound 0.01 µM) was 0.36% and the viability, T/C [13] was 1.07%. It also gave a viability, T/C [14] of 0.19%, a viability, T/C [15] of 0.14% and a viability, T/C [16] of 0.3%. For the same molecule, the viability, T/C (second compound 3.16 µM, first compound 0.00316 µM) was 0.23%, the viability, T/C (second compound 3.16 µM, first compound 0.01 µM) was 0.3% and the viability, T/C [17] was 0.53%. The viability, T/C [18] was 0.25%, the viability, T/C [19] was 0.38% and the viability, T/C [20] was 0.85%. It also gave a viability, T/C (second compound 10 µM, first compound 0.00316 µM) of 0.27%, a viability, T/C (second compound 10 µM, first compound 0.01 µM) of 1.05% and a viability, T/C [21] of 0.38%. For the same molecule, the viability, T/C [22] was 0.27%, the viability, T/C [23] was 0.23% and the viability, T/C [24] was 0.35%.
With COc1cccc2c1C(=O)c1c(O)c3c(c(O)c1C2=O)CC(O)(C(=O)CO)CC3OC1CC(N)C(O)C(C)O1 (centres undefined) + CN1CCN(c2cc(C(=O)Nc3cc4cc(-c5cnn(C)c5)ccc4cn3)ccn2)CC1 the IC50 (second compound 0.0316 µM) was < 31.6 nM, the IC50 (second compound 0.1 µM) was < 31.6 nM and the IC50 (second compound 0.316 µM) was < 31.6 nM. The IC50 (second compound 1 µM) was < 31.6 nM, the IC50 (second compound 3.16 µM) was < 31.6 nM and the IC50 (second compound 10 µM) was < 31.6 nM. The viability, T/C [1] was 16.3%, the viability, T/C [2] was 7.2% and the viability, T/C [3] was 1.82%. The viability, T/C [4] was 0.52%, the viability, T/C (second compound 0.0316 µM, first compound 3.16 µM) was 3.08% and the viability, T/C (second compound 0.0316 µM, first compound 10 µM) was 7.38%. The viability, T/C [5] was 17.7%, the viability, T/C [6] was 5.86% and the viability, T/C [7] was 1.2%. The viability, T/C [8] was 0.36%, the viability, T/C (second compound 0.1 µM, first compound 3.16 µM) was 4.01% and the viability, T/C (second compound 0.1 µM, first compound 10 µM) was 8.5%. It also gave a viability, T/C [9] of 15.2%, a viability, T/C [10] of 4.88% and a viability, T/C [11] of 0.54%. It also gave a viability, T/C [12] of 0.77%, a viability, T/C (second compound 0.316 µM, first compound 3.16 µM) of 3.95% and a viability, T/C (second compound 0.316 µM, first compound 10 µM) of 9.46%. It also gave a viability, T/C [13] of 0.41%, a viability, T/C [14] of 0.53% and a viability, T/C [15] of 0.23%. It also gave a viability, T/C [16] of 1.24%, a viability, T/C (second compound 1 µM, first compound 3.16 µM) of 3.93% and a viability, T/C (second compound 1 µM, first compound 10 µM) of 8.63%. It also gave a viability, T/C [17] of 0.22%, a viability, T/C [18] of 0.41% and a viability, T/C [19] of 1.02%. The viability, T/C [20] was 1.45%, the viability, T/C (second compound 3.16 µM, first compound 3.16 µM) was 6.27% and the viability, T/C (second compound 3.16 µM, first compound 10 µM) was 9.38%. For the same molecule, the viability, T/C [21] was 0.49%, the viability, T/C [22] was 0.33% and the viability, T/C [23] was 1.94%. The viability, T/C [24] was 0.34%, the viability, T/C (second compound 10 µM, first compound 3.16 µM) was 0.53% and the viability, T/C (second compound 10 µM, first compound 10 µM) was 0.18%.
